The text below walks through data of PubChem BioAssay AID330 (DTP/NCI, 2004).

The test has as its system P388 leukemia ip, CD2F1 mice, survival T/C. As to the kind of experiment: NCI In Vivo Anticancer Drug Screen. Data for tumor model P388 Leukemia (intraperitoneal) in CD2F1 (CDF1) mice. The settings on record: endpoint: median survival time, higher = longer survival. Summed up:
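Mice carrying the transplanted tumor received test compound or vehicle. Survival was recorded in each group, and the value is the treated-group measurement divided by that of the vehicle-treated control group.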

[1] abbreviates: dose: 50.0 mg/kg/injection, schedule: Q01DX005 (ip), vehicle: saline with Tween-80.
The mark [2] stands for this setting: dose: 200.0 mg/kg/injection, schedule: Q01DX005 (ip), vehicle: saline with Tween-80.
The mark [3] stands for this setting: dose: 100.0 mg/kg/injection, schedule: Q01DX005 (ip), vehicle: saline with Tween-80.
Where [4] appears, read: dose: 50.0 mg/kg/injection, schedule: Q01DX009 (ip), vehicle: saline with Tween-80.
[5] abbreviates: dose: 100.0 mg/kg/injection, schedule: Q01DX009 (ip), vehicle: saline with Tween-80.
The mark [6] stands for this setting: dose: 200.0 mg/kg/injection, schedule: Q01DX009 (ip), vehicle: saline with Tween-80.

Values joined by “and” are separate entries in the source; they are usually repeats but may differ in a detail not shown here. Equal entries are not always repeated. Toxic doses and inconclusive results are not listed.

As to `C=CCc1cc(/C(CC)=C(/CC)c2ccc(OCCN(CC)CC)c(CC=C)c2)ccc1OCCN(CC)CC`, the T/C runs as follows: (dose: 50.0 mg/kg/injection, schedule: Q01DX005 (ip), vehicle: saline + Tween-80 + alcohol) 99 % of control; (dose: 100.0 mg/kg/injection, schedule: Q01DX005 (ip), vehicle: saline + Tween-80 + alcohol) 93 % of control; (dose: 200.0 mg/kg/injection, schedule: Q01DX005 (ip), vehicle: saline + Tween-80 + alcohol) 104 % of control.

As to `COc1ccc(N2CCN(CC(O)COc3cc4c(c5c3CCCC5)CCCC4)CC2)cc1` (stereo not given), the T/C was 104 % of control (dose: 100.0 mg/kg/injection, schedule: Q04DX003 (ip), vehicle: Klucel (hydroxypropylcellulose) (HPC)); 94 % of control (dose: 200.0 mg/kg/injection, schedule: Q04DX003 (ip), vehicle: Klucel (hydroxypropylcellulose) (HPC)); 108 % of control (dose: 400.0 mg/kg/injection, schedule: Q04DX003 (ip), vehicle: Klucel (hydroxypropylcellulose) (HPC)).

For `O=C(OCC1OC(n2ccc(=S)[nH]c2=O)C(OC(=O)c2ccccc2)C1OC(=O)c1ccccc1)c1ccccc1` (stereo not given), the T/C is 102 % of control (dose: 12.5 mg/kg/injection, schedule: Q01DX005 (ip), vehicle: saline with Tween-80); 91 % of control (dose: 25.0 mg/kg/injection, schedule: Q01DX005 (ip), vehicle: saline with Tween-80); 91 % of control and 95 % of control under setting [1]; 87 % of control under setting [2].

As for `COC1=C(OC)C(=O)C(SCCCCCCC2CCCCC2)=C(Cl)C1=O`, the T/C was 95 % of control (dose: 0.2 mg/kg/injection, schedule: Q01DX009 (ip), vehicle: saline); 101 % of control (dose: 0.4 mg/kg/injection, schedule: Q01DX009 (ip), vehicle: saline); 101 % of control (dose: 0.8 mg/kg/injection, schedule: Q01DX009 (ip), vehicle: saline); 102 % of control (dose: 1.6 mg/kg/injection, schedule: Q01DX009 (ip), vehicle: saline); 105 % of control (dose: 3.13 mg/kg/injection, schedule: Q01DX009 (ip), vehicle: saline); 106 % of control (dose: 6.25 mg/kg/injection, schedule: Q01DX009 (ip), vehicle: saline).

Take `O=c1c2ccccc2ncn1Cc1ccco1`: the T/C was 98 % of control under setting [1], 98 % of control under setting [3] and 99 % of control under setting [2].

As to `Fc1cccc(Cl)c1C(Nc1nc2ccccc2s1)Nc1nc2ccccc2s1`, the T/C (dose: 60.0 mg/kg/injection, schedule: Q01DX005 (ip), vehicle: Klucel (hydroxypropylcellulose) (HPC)) was 98 % of control; the T/C (dose: 120.0 mg/kg/injection, schedule: Q01DX005 (ip), vehicle: Klucel (hydroxypropylcellulose) (HPC)) is 101 % of control; the T/C (dose: 240.0 mg/kg/injection, schedule: Q01DX005 (ip), vehicle: Klucel (hydroxypropylcellulose) (HPC)) is 95 % of control.

`NNS(=O)(=O)c1cc(Cl)c(Cl)cc1Cl`: the T/C is 94 % of control (dose: 50.0 mg/kg/injection, schedule: Q01DX009 (ip), vehicle: Klucel (hydroxypropylcellulose) (HPC)); 98 % of control (dose: 100.0 mg/kg/injection, schedule: Q01DX009 (ip), vehicle: Klucel (hydroxypropylcellulose) (HPC)); 95 % of control (dose: 200.0 mg/kg/injection, schedule: Q01DX009 (ip), vehicle: Klucel (hydroxypropylcellulose) (HPC)).

With `CCC[As](CCC)SC1CC(OC(=O)c2ccccc2)C(OC(=O)c2ccccc2)C(COC(=O)c2ccccc2)O1` (stereo not given), the T/C (dose: 50.0 mg/kg/injection, schedule: Q01DX009 (ip), vehicle: saline + alcohol) was 100 % of control; the T/C (dose: 100.0 mg/kg/injection, schedule: Q01DX009 (ip), vehicle: saline + alcohol) was 102 % of control; the T/C (dose: 200.0 mg/kg/injection, schedule: Q01DX009 (ip), vehicle: saline + alcohol) is 102 % of control.

Take `Cc1cccc2c1CC(C(C)C)C2` (stereo not given): the T/C runs as follows: (dose: 25.0 mg/kg/injection, schedule: Q01DX009 (ip), vehicle: saline with Tween-80) 111 % of control and 89 % of control; under setting [4], 108 % of control and 96 % of control; under setting [5], 104 % of control and 107 % of control; under setting [6], 90 % of control.

Consider `O=C(NCCCCCCNC(=O)c1ccccc1)c1ccccc1`, for which the T/C reads like this: (dose: 50.0 mg/kg/injection, schedule: Q01DX005 (ip), vehicle: Klucel (hydroxypropylcellulose) (HPC)) 100 % of control and 90 % of control; (dose: 100.0 mg/kg/injection, schedule: Q01DX005 (ip), vehicle: Klucel (hydroxypropylcellulose) (HPC)) 107 % of control and 86 % of control; (dose: 200.0 mg/kg/injection, schedule: Q01DX005 (ip), vehicle: Klucel (hydroxypropylcellulose) (HPC)) 89 % of control and 90 % of control.

With `CCc1ccccc1NC(=O)C(C#N)C1=C(Cl)C(=O)c2ccccc2C1=O` (stereo not given), the T/C runs as follows: (dose: 60.0 mg/kg/injection, schedule: Q01DX005 (ip), vehicle: saline with Tween-80) 113 % of control; (dose: 120.0 mg/kg/injection, schedule: Q01DX005 (ip), vehicle: saline with Tween-80) 106 % of control.

Take `C1=NC(c2ccccc2)C(/C=C/c2ccccc2)N=C1c1ccccc1` (stereo not given): the T/C reads like this: (dose: 100.0 mg/kg/injection, schedule: Q01DX001 (ip), vehicle: saline) 96 % of control; (dose: 200.0 mg/kg/injection, schedule: Q01DX001 (ip), vehicle: saline) 93 % of control; (dose: 400.0 mg/kg/injection, schedule: Q01DX001 (ip), vehicle: saline) 86 % of control.

With `CN(C)C1CCc2[nH]c3c(F)cc(F)cc3c2C1` (stereo not given), the T/C under setting [4] is 102 % of control.

As to `NC(Cc1ccc(O)cc1)C(=O)N/N=C/c1ccc2c(c1)OCO2` (stereo not given), the T/C under setting [1] was 92 % of control, the T/C under setting [3] is 99 % of control and the T/C under setting [2] is 103 % of control.

Consider `O=c1ccn2c(n1)OC1C(O)C(CO)OC12` (stereo not given), for which the T/C runs as follows: (dose: 50.0 mg/kg/injection, schedule: Q04DX003 (ip), vehicle: saline) 100 % of control; (dose: 100.0 mg/kg/injection, schedule: Q04DX003 (ip), vehicle: saline) 103 % of control; (dose: 200.0 mg/kg/injection, schedule: Q04DX003 (ip), vehicle: saline) 102 % of control; (dose: 400.0 mg/kg/injection, schedule: Q04DX003 (ip), vehicle: saline) 91 % of control.

Take `CCCC1CCC(=C2C(=O)CCC2=O)O1` (stereo not given): the T/C (dose: 25.0 mg/kg/injection, schedule: Q04DX002 (ip), vehicle: saline) was 102 % of control; the T/C (dose: 50.0 mg/kg/injection, schedule: Q04DX002 (ip), vehicle: saline) was 102 % of control; the T/C (dose: 100.0 mg/kg/injection, schedule: Q04DX002 (ip), vehicle: saline with Tween-80) was 110 % of control; the T/C (dose: 100.0 mg/kg/injection, schedule: Q04DX002 (ip), vehicle: saline) is 103 % of control; the T/C (dose: 200.0 mg/kg/injection, schedule: Q04DX002 (ip), vehicle: saline with Tween-80) is 102 % of control; the T/C (dose: 200.0 mg/kg/injection, schedule: Q04DX002 (ip), vehicle: saline) is 100 % of control.

For the compound `COc1cc(-c2ccc(NC(=O)Nc3nccs3)c(OC)c2)ccc1NC(=O)Nc1nccs1`, the T/C runs as follows: under setting [4], 95 % of control; under setting [5], 98 % of control; under setting [6], 96 % of control.

For `COc1cc(N(CCCl)CCCl)c(OC)cc1/C=N\Nc1nncn1N`, the T/C reads like this: (dose: 0.25 mg/kg/injection, schedule: Q01DX009 (ip), vehicle: saline) 95 % of control; (dose: 0.5 mg/kg/injection, schedule: Q01DX009 (ip), vehicle: saline) 104 % of control; (dose: 0.63 mg/kg/injection, schedule: Q04DX003 (ip), vehicle: saline) 100 % of control; (dose: 1.25 mg/kg/injection, schedule: Q01DX009 (ip), vehicle: saline) 154 % of control; (dose: 1.25 mg/kg/injection, schedule: Q04DX003 (ip), vehicle: saline) 100 % of control; (dose: 2.5 mg/kg/injection, schedule: Q01DX009 (ip), vehicle: saline) 154 % of control. The T/C runs as follows: (dose: 2.5 mg/kg/injection, schedule: Q04DX003 (ip), vehicle: saline) 107 % of control; (dose: 5.0 mg/kg/injection, schedule: Q01DX009 (ip), vehicle: saline) 186 % of control; (dose: 5.0 mg/kg/injection, schedule: Q04DX003 (ip), vehicle: saline) 123 % of control.

On to `COc1ccc(NC(=O)c2ccc(C(=O)Nc3ccc(OC)cc3)cc2)cc1`, for which the T/C was 90 % of control (dose: 50.0 mg/kg/injection, schedule: Q01DX001 (ip), vehicle: other); 95 % of control (dose: 100.0 mg/kg/injection, schedule: Q01DX001 (ip), vehicle: other); 90 % of control (dose: 200.0 mg/kg/injection, schedule: Q01DX001 (ip), vehicle: other); 95 % of control (dose: 400.0 mg/kg/injection, schedule: Q01DX001 (ip), vehicle: other).
